Measurements: patent US20250361230A1, “LATS Inhibitors and Uses Thereof” (The USA, as Represented by the Secretary, Dept. of Heath …, priority 2022, published 2025)
Read-outs that look alike come from different tables or passages of the source.

Columns and labels:
Assay type in all cases: biochemical
LATS1 = biological target: T1, LATS1 (Homo sapiens, UniProt O95835); test: RBC HotSpot kinase assay (33P-ATP, P81 filter-binding), LATS1
T1 sequence (O95835 1-1130): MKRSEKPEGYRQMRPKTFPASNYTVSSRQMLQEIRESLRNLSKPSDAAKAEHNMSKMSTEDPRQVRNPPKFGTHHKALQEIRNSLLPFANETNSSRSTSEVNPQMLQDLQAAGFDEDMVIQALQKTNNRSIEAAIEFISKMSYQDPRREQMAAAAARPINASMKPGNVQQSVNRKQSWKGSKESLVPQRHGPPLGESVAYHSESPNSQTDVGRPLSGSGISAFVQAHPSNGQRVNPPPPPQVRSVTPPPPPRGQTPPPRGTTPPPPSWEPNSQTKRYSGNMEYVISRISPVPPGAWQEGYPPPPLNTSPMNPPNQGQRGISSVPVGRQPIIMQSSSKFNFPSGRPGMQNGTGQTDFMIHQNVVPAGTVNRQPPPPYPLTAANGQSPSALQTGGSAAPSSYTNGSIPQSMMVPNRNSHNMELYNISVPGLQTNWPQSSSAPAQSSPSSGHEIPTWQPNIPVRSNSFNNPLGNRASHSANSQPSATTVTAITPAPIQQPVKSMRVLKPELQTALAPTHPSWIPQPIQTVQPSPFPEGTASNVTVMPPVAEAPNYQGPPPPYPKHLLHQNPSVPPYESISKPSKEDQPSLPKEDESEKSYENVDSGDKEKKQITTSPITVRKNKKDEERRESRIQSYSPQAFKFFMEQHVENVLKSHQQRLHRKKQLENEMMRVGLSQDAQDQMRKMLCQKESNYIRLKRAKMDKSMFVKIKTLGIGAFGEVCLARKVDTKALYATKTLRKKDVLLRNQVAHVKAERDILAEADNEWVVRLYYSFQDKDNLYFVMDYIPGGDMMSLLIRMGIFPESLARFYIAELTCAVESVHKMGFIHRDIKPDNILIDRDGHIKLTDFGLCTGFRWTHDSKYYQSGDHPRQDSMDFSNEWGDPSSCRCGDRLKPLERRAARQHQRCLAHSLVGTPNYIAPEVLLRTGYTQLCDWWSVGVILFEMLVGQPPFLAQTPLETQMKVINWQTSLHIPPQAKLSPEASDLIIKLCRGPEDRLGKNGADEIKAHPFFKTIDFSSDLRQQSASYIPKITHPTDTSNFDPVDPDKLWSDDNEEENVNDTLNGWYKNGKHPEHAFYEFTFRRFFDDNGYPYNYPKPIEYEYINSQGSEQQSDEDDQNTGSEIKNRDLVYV
How it was run: (§1)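 IC50 in nM was derived from 10-point, single-replicate titrations. Read-out was radiometric P81 filter binding following a 2 h room-temperature reaction with 33P-ATP, after 20 min compound preincubation.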

LATS2 = biological target: T2, LATS2 (Homo sapiens, UniProt Q9NRM7); test: RBC HotSpot kinase assay (33P-ATP, P81 filter-binding), LATS2
T2 sequence (Q9NRM7 1-1088): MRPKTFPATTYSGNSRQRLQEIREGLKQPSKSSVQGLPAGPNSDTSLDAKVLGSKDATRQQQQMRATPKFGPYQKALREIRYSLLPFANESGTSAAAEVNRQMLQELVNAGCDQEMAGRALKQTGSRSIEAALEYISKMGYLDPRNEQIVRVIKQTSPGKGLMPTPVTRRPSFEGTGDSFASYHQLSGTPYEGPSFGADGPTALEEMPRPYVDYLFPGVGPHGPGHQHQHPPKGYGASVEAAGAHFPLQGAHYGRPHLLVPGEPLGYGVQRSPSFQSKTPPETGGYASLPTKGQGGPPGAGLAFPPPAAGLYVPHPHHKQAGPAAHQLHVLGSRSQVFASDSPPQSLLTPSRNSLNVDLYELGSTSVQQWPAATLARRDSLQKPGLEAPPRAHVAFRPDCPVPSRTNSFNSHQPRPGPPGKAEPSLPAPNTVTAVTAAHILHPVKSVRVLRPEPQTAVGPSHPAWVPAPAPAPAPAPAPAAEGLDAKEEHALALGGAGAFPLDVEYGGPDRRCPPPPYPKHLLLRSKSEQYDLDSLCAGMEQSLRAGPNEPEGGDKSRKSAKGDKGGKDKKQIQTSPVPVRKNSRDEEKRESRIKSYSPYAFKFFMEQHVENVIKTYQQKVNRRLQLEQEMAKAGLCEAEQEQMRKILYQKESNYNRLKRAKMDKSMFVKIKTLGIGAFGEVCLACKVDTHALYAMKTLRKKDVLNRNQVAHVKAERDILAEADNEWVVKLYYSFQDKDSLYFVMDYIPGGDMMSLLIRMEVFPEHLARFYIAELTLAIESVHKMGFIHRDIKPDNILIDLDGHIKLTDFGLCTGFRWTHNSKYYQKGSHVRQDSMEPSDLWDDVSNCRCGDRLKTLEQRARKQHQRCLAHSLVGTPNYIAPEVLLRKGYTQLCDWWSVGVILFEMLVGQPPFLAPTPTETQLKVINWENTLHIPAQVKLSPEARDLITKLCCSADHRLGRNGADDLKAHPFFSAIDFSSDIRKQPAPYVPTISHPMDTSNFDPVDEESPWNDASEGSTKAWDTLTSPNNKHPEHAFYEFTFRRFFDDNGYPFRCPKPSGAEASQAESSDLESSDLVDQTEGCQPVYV
How it was run: as §1

AKT = AKT (Homo sapiens, UniProt P31749); test: RBC HotSpot kinase assay (33P-ATP, P81 filter-binding), AKT
How it was run: as §1

[1] = Table 28, biochemical kinase assay, read-out: LATS1 IC50
[2] = Table 28, biochemical kinase assay, read-out: LATS2 IC50
[3] = Table 28, biochemical kinase assay, read-out: AKT IC50
[4] = biochemical kinase inhibition, read-out: LATS1 IC50
[5] = biochemical kinase inhibition, read-out: LATS2 IC50
[6] = biochemical kinase inhibition, read-out: AKT IC50

Chain of AKT (P31749 whole entry): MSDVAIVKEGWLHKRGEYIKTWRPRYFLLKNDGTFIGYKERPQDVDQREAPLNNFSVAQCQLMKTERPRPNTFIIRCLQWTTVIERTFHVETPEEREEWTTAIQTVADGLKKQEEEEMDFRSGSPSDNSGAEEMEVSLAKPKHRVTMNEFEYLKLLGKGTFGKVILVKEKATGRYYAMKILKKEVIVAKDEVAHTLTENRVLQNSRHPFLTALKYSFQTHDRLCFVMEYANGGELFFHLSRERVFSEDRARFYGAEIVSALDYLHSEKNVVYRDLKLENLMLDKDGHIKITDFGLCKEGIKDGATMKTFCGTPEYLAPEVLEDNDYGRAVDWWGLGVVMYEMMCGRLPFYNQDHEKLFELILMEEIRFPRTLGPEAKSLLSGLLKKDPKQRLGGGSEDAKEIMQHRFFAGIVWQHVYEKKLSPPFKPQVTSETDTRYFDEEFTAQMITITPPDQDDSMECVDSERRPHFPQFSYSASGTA

Row | Compound | IC50 (LATS1; [1]) [nM] | IC50 (LATS2; [2]) [nM] | IC50 (AKT; [3]) [nM] | also measured
1 | C[C@@H]1CN(C2CCC2)C[C@H](C)[C@@]1(O)c1ccc(-c2ccnc3[nH]cc(F)c23)cc1Cl [Compound 20, (3S,4s,5R)-4-(2-chloro-4-(3-fluoro-1H-pyrrolo[2,3-b]pyridin-4-yl)phenyl)-1-cyclobutyl-3,5-dimethylpiperidin-4-ol] | 2.6 | 2.7 | 195 | 
2 | CCN(CC)c1cc(-c2ccnc3[nH]ccc23)ccc1CNC(C)=O [Compound 236, N-(2-(diethylamino)-4-(1H-pyrrolo[2,3-b]pyridin-4-yl)benzyl)acetamide] | 772 | 887 | 3590 | 
3 | Cc1cc(-c2ccnc3[nH]cc(C#N)c23)ccc1[C@@]1(O)[C@H](C)CN(C(=O)[C@@H](C)N)C[C@@H]1C [Compound 2010, 4-(4-((3S,4S,5R)-1-(D-alanyl)-4-hydroxy-3,5-dimethylpiperidin-4-yl)-3-methylphenyl)-1H-pyrrolo[2,3-b]pyridine-3-carbonitrile] |  |  |  | IC50 (LATS1; [4]): 13.4 nM; IC50 (LATS2; [5]): 8.5 nM; IC50 (AKT; [6]): 89.4 nM
4 | C[C@@H]1CNC[C@H](C)C1(O)c1cnc(-c2ccnc3[nH]cc(F)c23)cc1-c1ccccc1 (stereo partly drawn) [Compound 130, (3S,5R)-4-(6-(3-fluoro-1H-pyrrolo[2,3-b]pyridin-4-yl)-4-phenylpyridin-3-yl)-3,5-dimethylpiperidin-4-ol] | 146 | 381 | 2260 | 
5 | Cc1cc(C2CCNCC2)ccc1-c1ccnc2[nH]ccc12 [Compound 176, 4-(2-methyl-4-(piperidin-4-yl)phenyl)-1H-pyrrolo[2,3-b]pyridine] | 1100 | 2140 | > 10000 | 
6 | NCC(=O)N1CC2(C1)CC(O)(c1c(F)cc(-c3ccnc4[nH]cc(F)c34)cc1F)C2 [Compound 145, 2-amino-1-(6-(2,6-difluoro-4-(3-fluoro-1H-pyrrolo[2,3-b]pyridin-4-yl)phenyl)-6-hydroxy-2-azaspiro[3.3]heptan-2-yl)ethan-1-one] | 28.3 | 46 | 1870 | 
7 | C[C@@H]1CN(C2CC3(CNC3)C2)C[C@H](C)[C@@]1(O)c1c(F)cc(-c2ccnc3[nH]cc(F)c23)cc1F [Compound 89, (3R,4s,5S)-4-(2,6-difluoro-4-(3-fluoro-1H-pyrrolo[2,3-b]pyridin-4-yl)phenyl)-3,5-dimethyl-1-(2-azaspiro[3.3]heptan-6-yl)piperidin-4-ol] | 3.7 | 3.8 | 68 | 
8 | Cc1cc(-c2ccnc3[nH]cc(C#N)c23)cc(F)c1[C@@]1(O)[C@H](C)CN(C(=O)[C@H](N)CO)C[C@@H]1C (single isomer, unassigned) [Compound 2006] |  |  |  | IC50 (LATS1; [4]): 3.6 nM; IC50 (LATS2; [5]): 1.4 nM; IC50 (AKT; [6]): 126 nM
9 | OC1(c2ccc(-c3ccnc4[nH]cc(F)c34)cc2)CNC1 [Compound 116, 3-(4-(3-fluoro-1H-pyrrolo[2,3-b]pyridin-4-yl)phenyl)azetidin-3-ol] | 9.2 | 16.7 | 468 | 
10 | CC(C)(N)c1ccc(-c2ccnc3[nH]cc(Br)c23)cc1-c1ccccc1 [Compound 207, 2-(5-(3-bromo-1H-pyrrolo[2,3-b]pyridin-4-yl)-[1,1′-biphenyl]-2-yl)propan-2-amine] | 4 | 9.6 | 267 | 
11 | Cc1c[nH]c2nccc(-c3ccc([C@@]4(O)[C@H](C)CNC[C@@H]4C)cn3)c12 [Compound 3, (3R,4s,5S)-3,5-dimethyl-4-(6-(3-methyl-1H-pyrrolo[2,3-b]pyridin-4-yl)pyridin-3-yl)piperidin-4-ol] | 72.3 | 49.6 | 4410 | 
12 | Cc1cc(-c2ccnc3[nH]cc(F)c23)cc(Cl)c1[C@@]1(O)[C@H](C)CN(C2COC2)C[C@@H]1C [Compound 49, (3R,4s,5S)-4-(2-chloro-4-(3-fluoro-1H-pyrrolo[2,3-b]pyridin-4-yl)-6-methylphenyl)-3,5-dimethyl-1-(oxetan-3-yl)piperidin-4-ol] | 697 | 428 | 125 | 
13 | Cc1cc(-c2ccnc3[nH]ccc23)cc(F)c1[C@@]1(O)[C@H](C)CN(C2CCS(=O)(=O)CC2)C[C@@H]1C [Compound 308, 4-((3S,4s,5R)-4-(2-fluoro-6-methyl-4-(1H-pyrrolo[2,3-b]pyridin-4-yl)phenyl)-4-hydroxy-3,5-dimethylpiperidin-1-yl)tetrahydro-2H-thiopyran 1,1-dioxide] | 10 | 8.4 | 1090 | 
14 | Fc1cc(C2CCNCC2)ccc1-c1ccnc2[nH]ccc12 [Compound 181, 4-(2-fluoro-4-(piperidin-4-yl)phenyl)-1H-pyrrolo[2,3-b]pyridine] | 68 | 87 | 3360 | 
15 | CCC1(c2ccc(-c3ccnc4[nH]cc(F)c34)cc2Cl)CCNCC1 [Compound 199, 4-(3-chloro-4-(4-ethylpiperidin-4-yl)phenyl)-3-fluoro-1H-pyrrolo[2,3-b]pyridine] | 38 | 34 | 463 | 
16 | OC1(c2ccc(-c3ccnc4[nH]cc(Br)c34)nc2)C[C@H]2CC[C@@H](C1)N2 (stereo partly drawn) [Compound 119, (1R,5S)-3-(6-(3-bromo-1H-pyrrolo[2,3-b]pyridin-4-yl)pyridin-3-yl)-8-azabicyclo[3.2.1]octan-3-ol] |  |  |  | IC50 (LATS1): 29.8 nM; IC50 (LATS2): 184 nM; IC50 (AKT): 2590 nM
17 | O=C([C@@H]1CCCN1)N1CCC(c2ccc(-c3ccnc4[nH]cc(F)c34)cc2Cl)CC1 [Compound 166, (S)-4-(3-chloro-4-(1-prolylpiperidin-4-yl)phenyl)-3-fluoro-1H-pyrrolo[2,3-b]pyridine] | 10.7 | 15.5 | 1300 | 
18 | Cc1cc(-c2ccnc3[nH]cc(F)c23)cc(F)c1[C@@]1(O)[C@H](C)CN(C(=O)[C@@H]2C[C@@H](O)CN2)C[C@@H]1C [Compound 69, ((3S,4R,5R)-4-(2-fluoro-4-(3-fluoro-1H-pyrrolo[2,3-b]pyridin-4-yl)-6-methylphenyl)-4-hydroxy-3,5-dimethylpiperidin-1-yl)((2S,4R)-4-hydroxypyrrolidin-2-yl)methanone] | 8.5 | 3.4 | 677 | 
19 | CN1CCC(c2ccc(-c3ccnc4[nH]cc(F)c34)cc2Cl)CC1 [Compound 167, 4-(3-chloro-4-(1-methylpiperidin-4-yl)phenyl)-3-fluoro-1H-pyrrolo[2,3-b]pyridine] | 18 | 31 | 1520 | 
